Patent US10160738B2, “Neuroactive substituted cyclopent[a]anthracenes as modulators for GABA type-A receptors” (priority 2013, dated 2018)
Read-outs that look alike come from different tables or passages of the source.

How the values were obtained:
tadpole = assay: Tadpole loss of righting reflex (LRR) and loss of swimming reflex (LSR); type: in vivo; settings: ± SEM
Procedure: Table 3 discloses the anesthetic effects of the compounds of the present disclosure. In particular, the anesthetic effect of the compounds of the present disclosure on Loss of Righting Reflex (LRR) and Loss of Swimming Reflex (LSR).
Methods used are known in the art (see Jiang, X., et al.). Error limits are calculated as standard error of the mean (N=10 or more animals at each of five or more different concentrations).

[1] = target: picrotoxin binding site on GABAA receptors; assay: [35S]-TBPS displacement (inhibition of [35S]-TBPS binding); settings: non-competitive displacement; duplicate experiments in triplicate; ± SEM
Procedure: The IC50 values for non-competitive displacers of [^35S]-TBPS from the picrotoxin binding site on GABAA receptors are reported in Table 1.
Results presented are from duplicate experiments performed in triplicate. Error limits are calculated as standard error of the mean. Methods used are known in the art (see Jiang, X., et al., Neurosteroid analogues. 9. Conformationally constrained pregnanes: structure-activity studies of 13,24-cyclo-18,21-dinorcholane analogues of the GABA modulatory and anesthetic steroids (3α,5α)- and […]. J. Med. Chem., 46: 5334-48 (2003)—the contents of which are hereby incorporated by reference in their entirety).

[2] = target: T1, rat α1β2γ2L type GABAA receptors expressed in Xenopus laevis oocytes (Rattus norvegicus, UniProt P18508+P62813+P63138, INS375LLRMFSFK); assay: Potentiation of GABA-mediated chloride currents, oocyte electrophysiology; type: cell-based; settings: ± SEM; for Oocyte electrophysiology (gating) 10 μM: direct current gated by 10 μM compound in absence of GABA, ratio compound only current/2 μM GABA current; for Oocyte electrophysiology 0.1 μM: ratio of currents in presence/absence of 0.1 μM compound; for Oocyte electrophysiology 0.1 μM / Oocyte electrophysiology 1.0 μM / Oocyte electrophysiology 10 μM: 2 μM GABA, N≥4; for Oocyte electrophysiology 1.0 μM: ratio of currents in presence/absence of 1.0 μM compound; for Oocyte electrophysiology 10 μM: ratio of currents in presence/absence of 10 μM compound
T1 construct: expressed in transfected cells; host or cells: Xenopus laevis oocytes
T1 sequence (P62813 28-455, stated change not applied): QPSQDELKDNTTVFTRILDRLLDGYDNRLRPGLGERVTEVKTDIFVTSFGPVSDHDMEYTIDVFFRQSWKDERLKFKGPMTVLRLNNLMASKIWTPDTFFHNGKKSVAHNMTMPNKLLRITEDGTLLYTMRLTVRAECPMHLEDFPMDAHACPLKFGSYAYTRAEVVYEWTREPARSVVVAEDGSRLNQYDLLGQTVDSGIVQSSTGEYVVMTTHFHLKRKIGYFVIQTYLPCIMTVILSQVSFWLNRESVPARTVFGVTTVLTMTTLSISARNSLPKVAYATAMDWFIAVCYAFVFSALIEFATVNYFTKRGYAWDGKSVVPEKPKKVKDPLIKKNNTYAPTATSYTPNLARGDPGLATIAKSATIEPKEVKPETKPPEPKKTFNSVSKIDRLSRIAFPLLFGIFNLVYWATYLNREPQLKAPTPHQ
T1 sequence (P63138 26-474, stated change not applied): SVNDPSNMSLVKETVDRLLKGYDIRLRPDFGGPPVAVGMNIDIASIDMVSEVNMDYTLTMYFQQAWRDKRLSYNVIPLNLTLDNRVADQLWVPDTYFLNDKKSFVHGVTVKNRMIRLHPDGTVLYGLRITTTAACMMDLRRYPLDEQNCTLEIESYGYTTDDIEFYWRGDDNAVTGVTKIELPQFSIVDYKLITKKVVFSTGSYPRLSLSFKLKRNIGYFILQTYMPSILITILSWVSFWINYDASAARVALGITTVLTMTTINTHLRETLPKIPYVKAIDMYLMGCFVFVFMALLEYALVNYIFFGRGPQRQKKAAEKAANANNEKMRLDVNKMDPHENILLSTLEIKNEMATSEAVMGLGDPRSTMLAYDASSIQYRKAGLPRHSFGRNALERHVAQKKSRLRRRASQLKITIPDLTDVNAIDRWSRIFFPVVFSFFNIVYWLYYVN
T1 sequence (P18508 with tags, fused parts or gaps INS375LLRMFSFK): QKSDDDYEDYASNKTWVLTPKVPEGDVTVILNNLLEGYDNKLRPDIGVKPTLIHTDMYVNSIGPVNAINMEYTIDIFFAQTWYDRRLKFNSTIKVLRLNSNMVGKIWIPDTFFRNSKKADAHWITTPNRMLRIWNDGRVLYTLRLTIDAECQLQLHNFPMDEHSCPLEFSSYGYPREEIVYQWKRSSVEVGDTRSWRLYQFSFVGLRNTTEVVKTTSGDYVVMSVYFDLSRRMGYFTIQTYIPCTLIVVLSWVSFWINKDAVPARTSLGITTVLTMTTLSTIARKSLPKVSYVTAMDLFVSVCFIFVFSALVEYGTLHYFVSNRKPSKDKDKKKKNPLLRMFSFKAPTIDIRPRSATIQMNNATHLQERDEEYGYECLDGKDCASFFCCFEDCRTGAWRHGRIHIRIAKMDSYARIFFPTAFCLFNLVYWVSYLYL
Procedure: The compounds of the present disclosure were evaluated for the ability to potentiate chloride currents mediated by 2 μM GABA at rat α1β2γ2L type GABAA receptors expressed in Xenopus laevis oocytes and the results are shown in Table 2.
The GABA concentration used for the control response was 2 μM. Each compound was evaluated on at least four different oocytes at the concentrations indicated, and the results reported are the ratio of currents measured in the presence/absence of added compound. Gating represents direct current gated by 10 μM compound in the absence of GABA, and this current is reported as the ratio of compound only current/2 μM GABA current. Error limits are calculated as standard error of the mean (N≥4). Methods used are known in the art (see Jiang, X., et al.).

[3] = loss of righting reflex, read-out: Tadpole LRR EC50
[4] = loss of swimming reflex, read-out: Tadpole LSR EC50

C[C@@]12CC[C@H]3C[C@H]4C[C@H](O)CC[C@@H]4C[C@@H]3[C@H]1CCC2=O [MQ-64, (3aR,5aS,6aS,8R,10aR,11aS,11bR)-Hexadecahydro-8-hydroxy-3a-methyl-3H-cyclopent[a]anthracen-3-one]
melting point: 152 to 154 °C
EC50 (tadpole; [3]): 3080 ± 10 nM
Tadpole LSR EC50 (tadpole; loss of swimming reflex): None
IC50 [1]: 346 ± 33 nM
Oocyte electrophysiology (gating) 10 μM [2]: 0.04 ± 0.03
Oocyte electrophysiology 0.1 μM [2]: 0.98 ± 0.02
Oocyte electrophysiology 1.0 μM [2]: 2.21 ± 0.17
Oocyte electrophysiology 10 μM [2]: 8.81 ± 1.87

C[C@@]12CC[C@H]3C[C@H]4C[C@H](O)CC[C@@H]4C[C@@H]3[C@H]1CC[C@]21CO1 [MQ-65, (2′R,3R,3aR,5aS,6aS,8R,10aR,11aS,11bR)-Hexadecahydro-3a-methyl-spiro[3H-cyclopent[a]anthracene-3,2′-oxiran]-8-ol]
melting point: 143 to 145 °C
EC50 (tadpole; [3]): 2090 ± 120 nM
EC50 (tadpole; [4]): 5480 ± 20 nM
IC50 [1]: 251 ± 66 nM
Oocyte electrophysiology (gating) 10 μM [2]: 0.02 ± 0.0
Oocyte electrophysiology 0.1 μM [2]: 1.27 ± 0.04
Oocyte electrophysiology 1.0 μM [2]: 2.94 ± 0.28
Oocyte electrophysiology 10 μM [2]: 6.86 ± 1.34

C[C@]12CC[C@@H]3C[C@@H]4C[C@@H](O)CC[C@H]4C[C@H]3[C@@H]1CCC2=O [MQ-74, (3aS,5aR,6aR,8S,10aS,11aR,11bS)-Hexadecahydro-8-hydroxy-3a-methyl-cyclopent[a]anthracen-3-one]
melting point: 152 to 154 °C
EC50 (tadpole; [3]): 3220 ± 30 nM
EC50 (tadpole; [4]): > 10000 nM
IC50 [1]: 1190 nM
Oocyte electrophysiology (gating) 10 μM [2]: −0.01 ± 0.04
Oocyte electrophysiology 0.1 μM [2]: 0.80 ± 0.06
Oocyte electrophysiology 1.0 μM [2]: 1.00 ± 0.0
Oocyte electrophysiology 10 μM [2]: 3.88 ± 0.56

C[C@]12CC[C@@H]3C[C@@H]4C[C@@H](O)CC[C@H]4C[C@H]3[C@@H]1CC[C@@]21CO1 [MQ-75, (2′S,3S,3aS,5aR,6aR,8S,10aS,11aR,11bS)-Hexadecahydro-3a-methyl-spiro[3H-cyclopent[a]anthracene-3,2′-oxiran]-8-ol]
melting point: 140 to 142 °C
EC50 (tadpole; [3]): 260 ± 40 nM
EC50 (tadpole; [4]): 950 nM
IC50 [1]: 226 ± 2 nM
Oocyte electrophysiology (gating) 10 μM [2]: 0.13 ± 0.04
Oocyte electrophysiology 0.1 μM [2]: 1.36 ± 0.03
Oocyte electrophysiology 1.0 μM [2]: 7.67 ± 0.71
Oocyte electrophysiology 10 μM [2]: 18.86 ± 1.99

C[C@]12CC[C@@H]3C[C@@H]4C[C@@H](O)CC[C@H]4C[C@H]3[C@@H]1CC=C2C#N [MQ-76, (3aS,5aR,6aR,8S,10aS,11aR,11bS)-8-Hydroxy-3a-methyl-3a,4,5,5a,6,6a,7,8,9,10,10a,11,11a,11b-Tetradecahydro-1H-cyclopent[a]anthracene-3-carbonitrile]
melting point: 164 to 166 °C
EC50 (tadpole; [3]): 390 ± 10 nM
EC50 (tadpole; [4]): 1730 ± 30 nM
IC50 [1]: 574 ± 142 nM
Oocyte electrophysiology (gating) 10 μM [2]: 0.31 ± 0.30
Oocyte electrophysiology 0.1 μM [2]: 0.95 ± 0.20
Oocyte electrophysiology 1.0 μM [2]: 2.08 ± 0.16
Oocyte electrophysiology 10 μM [2]: 9.43 ± 0.77

C[C@]12CC[C@@H]3C[C@@H]4C[C@@H](O)CC[C@H]4C[C@H]3[C@@H]1CC[C@@H]2C#N [MQ-77, (3S,3aS,5aR,6aR,8S,10aS,11aR,11bS)-Hexadecahydro-8-hydroxy-3a-methyl-cyclopent[a]anthracene-3-carbonitrile]
EC50 (tadpole; [3]): 590 ± 70 nM
EC50 (tadpole; [4]): 1730 ± 40 nM
IC50 [1]: 400 ± 118 nM
Oocyte electrophysiology (gating) 10 μM [2]: 0.02 ± 0.09
Oocyte electrophysiology 0.1 μM [2]: 1.03 ± 0.10
Oocyte electrophysiology 1.0 μM [2]: 3.65 ± 0.39
Oocyte electrophysiology 10 μM [2]: 14.80 ± 1.53

C[C@@]12CC[C@H]3C[C@H]4C[C@H](O)CC[C@@H]4C[C@@H]3[C@H]1CC=C2C#N [MQ-81, (3aR,5aS,6aS,8R,10aR,11aS,11bR)-8-Hydroxy-3a-methyl-3a,4,5,5a,6,6a,7,8,9,10,10a,11,11a,11b-Tetradecahydro-1H-cyclopent[a]anthracene-3-carbonitrile]
melting point: 165 to 167 °C
EC50 (tadpole; [3]): 770 ± 40 nM
EC50 (tadpole; [4]): 1730 ± 40 nM
IC50 [1]: 174 ± 14 nM
Oocyte electrophysiology (gating) 10 μM [2]: 0.09 ± 0.01
Oocyte electrophysiology 0.1 μM [2]: 1.37 ± 0.14
Oocyte electrophysiology 1.0 μM [2]: 5.69 ± 0.17
Oocyte electrophysiology 10 μM [2]: 18.39 ± 0.70

C[C@@]12CC[C@H]3C[C@H]4C[C@H](O)CC[C@@H]4C[C@@H]3[C@H]1CC(=O)C2 [MQ-82, (3aS,5aS,6aS,8R,10aR,11aS,11bR)-8-Hydroxy-3a-methyl-hexadecahydro-2H-cyclopenta[a]anthracen-2-one]
melting point: 145 to 147 °C
EC50 (tadpole; [3]): 3110 ± 10 nM
EC50 (tadpole; [4]): 7930 nM
IC50 [1]: 2680 nM
Oocyte electrophysiology (gating) 10 μM [2]: 0.19 ± 0.17
Oocyte electrophysiology 0.1 μM [2]: 0.80 ± 0.04
Oocyte electrophysiology 1.0 μM [2]: 0.83 ± 0.06
Oocyte electrophysiology 10 μM [2]: 2.43 ± 0.34
